Results taken from US4401660A, “Ester derivatives of 5-O-mycaminosyl tylonolide and method of using same” (Eli Lilly and Company, priority 1981, dated 1983).

What was measured:
Pasteurella multocida = assay: Treatment of Pasteurella infections in chicks (Table V); type: in vivo, one-day-old chicks; conditions: 30 mg/kg by subcutaneous injection one and four hours post challenge; for mortality at 30 mg/kg: Pasteurella multocida, sc, 4 h, read-out: Deaths in Treated Chicks/Number Treated (converted)
Outline: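 One-day-old chicks challenged subcutaneously with avian P. multocida (0.1 ml of 10^-3 dilution of 20-hour tryptose broth culture). Esters given at 30 mg/kg subcutaneously at 1 and 4 hours post challenge. Untreated infected controls, ten per group.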

[1] = tested on: Haemophilus influenzae R252; assay: MIC, standard agar-dilution assay (Table II); type: cell-based; design: unit not given here; conditions: Haemophilus influenzae R252, ampicillin-resistant strain
Description: (§1) The MIC's in Table II were determined by standard agar-dilution assays. The MIC's in Table III were obtained using a conventional broth-dilution microtiter test.

[2] = tested on: Streptococcus Group D X66; assay: MIC, standard agar-dilution assay (Table II); type: cell-based; design: unit not given here
Description: as §1

[3] = tested on: Staphylococcus aureus S13E; assay: MIC, standard agar-dilution assay (Table II); type: cell-based; design: unit not given here
Description: as §1

[4] = tested on: Streptococcus pyogenes C203; assay: MIC, standard agar-dilution assay (Table II); type: cell-based; design: unit not given here
Description: as §1

[5] = tested on: Staphylococcus aureus X400; assay: MIC, standard agar-dilution assay (Table II); type: cell-based; design: unit not given here; conditions: Staphylococcus aureus X400, methicillin-resistant strain
Description: as §1

[6] = tested on: Haemophilus influenzae Holt; assay: MIC, standard agar-dilution assay (Table II); type: cell-based; design: unit not given here; conditions: ampicillin-sensitive strain
Description: as §1

[7] = tested on: Streptococcus Group D 9960; assay: MIC, standard agar-dilution assay (Table II); type: cell-based; design: unit not given here
Description: as §1

[8] = tested on: Staphylococcus epidermidis EPI2; assay: MIC, standard agar-dilution assay (Table II); type: cell-based; design: unit not given here
Description: as §1

[9] = tested on: Staphylococcus aureus V41; assay: MIC, standard agar-dilution assay (Table II); type: cell-based; design: unit not given here; conditions: Staphylococcus aureus V41, penicillin-resistant strain
Description: as §1

[10] = tested on: Streptococcus pneumoniae Park I; assay: MIC, standard agar-dilution assay (Table II); type: cell-based; design: unit not given here
Description: as §1

[11] = tested on: Staphylococcus aureus X1.1; assay: MIC, standard agar-dilution assay (Table II); type: cell-based; design: unit not given here
Description: as §1

[12] = tested on: Staphylococcus epidermidis EPI1; assay: MIC, standard agar-dilution assay (Table II); type: cell-based; design: unit not given here
Description: as §1

Mycoplasma gallisepticum = assay: MIC, broth-dilution microtiter test (Table III); type: cell-based; design: unit not given here
Description: as §1

[13] = tested on: Pasteurella multocida 68C; assay: MIC, broth-dilution microtiter test (Table III); type: cell-based; design: unit not given here
Description: as §1

[14] = tested on: Pasteurella haemolytica 22C; assay: MIC, broth-dilution microtiter test (Table III); type: cell-based; design: unit not given here
Description: as §1

Staphylococcus aureus = assay: MIC, broth-dilution microtiter test (Table III); type: cell-based; design: unit not given here
Description: as §1

[15] = tested on: Pasteurella haemolytica 41D; assay: MIC, broth-dilution microtiter test (Table III); type: cell-based; design: unit not given here
Description: as §1

[16] = tested on: Pasteurella multocida 60A; assay: MIC, broth-dilution microtiter test (Table III); type: cell-based; design: unit not given here; conditions: avian isolate
Description: as §1

Streptococcus sp. 80 = assay: MIC, broth-dilution microtiter test (Table III); type: cell-based; design: unit not given here
Description: as §1

[17] = tested on: Pasteurella multocida 17E; assay: MIC, broth-dilution microtiter test (Table III); type: cell-based; design: unit not given here; conditions: bovine isolate
Description: as §1

Mycoplasma hyorhinis = assay: MIC, broth-dilution microtiter test (Table III); type: cell-based; design: unit not given here
Description: as §1

[18] = tested on: Pasteurella haemolytica 23C; assay: MIC, broth-dilution microtiter test (Table III); type: cell-based; design: unit not given here
Description: as §1

[19] = tested on: Pasteurella multocida 22A; assay: MIC, broth-dilution microtiter test (Table III); type: cell-based; design: unit not given here
Description: as §1

[20] = tested on: Pasteurella multocida 40G; assay: MIC, broth-dilution microtiter test (Table III); type: cell-based; design: unit not given here
Description: as §1

Mycoplasma synoviae = assay: MIC, broth-dilution microtiter test (Table III); type: cell-based; design: unit not given here
Description: as §1

CCC1OC(=O)CC(O)C(C)C(OC2OC(C)C(O)C(N(C)C)C2OC(C)=O)C(CC=O)CC(C)C(=O)C=CC(C)=CC1COC(=O)CCc1ccccc1 (centres unmarked) [Compound 30]
Deaths in Treated Chicks/Number Treated (Pasteurella multocida): 6/10
minimal inhibitory concentration (MIC) [1]: 0.5
minimal inhibitory concentration (MIC) [2]: 0.125
minimal inhibitory concentration (MIC) [3]: 0.25
minimal inhibitory concentration (MIC) [4]: 0.06
minimal inhibitory concentration (MIC) [5]: 0.25
minimal inhibitory concentration (MIC) [6]: 0.5
minimal inhibitory concentration (MIC) [7]: 0.125
minimal inhibitory concentration (MIC) [8]: 0.25
minimal inhibitory concentration (MIC) [9]: 0.25
minimal inhibitory concentration (MIC) [10]: 0.015
minimal inhibitory concentration (MIC) [11]: 0.125
minimal inhibitory concentration (MIC) [12]: 0.25
minimal inhibitory concentration (MIC) (Mycoplasma gallisepticum): < 0.05
minimal inhibitory concentration (MIC) [13]: 0.78
minimal inhibitory concentration (MIC) [14]: 3.12
minimal inhibitory concentration (MIC) (Staphylococcus aureus): 0.195
minimal inhibitory concentration (MIC) [15]: 3.12
minimal inhibitory concentration (MIC) [16]: 1.56
minimal inhibitory concentration (MIC) (Streptococcus sp. 80): < 0.05
minimal inhibitory concentration (MIC) [17]: 1.56
minimal inhibitory concentration (MIC) (Mycoplasma hyorhinis): 0.195
minimal inhibitory concentration (MIC) [18]: 3.12
minimal inhibitory concentration (MIC) [19]: 1.56
minimal inhibitory concentration (MIC) [20]: 0.78

CCC1OC(=O)CC(O)C(C)C(OC2OC(C)C(OC(C)=O)C(N(C)C)C2OC(C)=O)C(CC=O)CC(C)C(=O)C=CC(C)=CC1COC(=O)COc1ccccc1 (centres unmarked) [Compound 34, 2',4'-Di-O-acetyl-23-O-phenoxyacetyl-OMT]
mortality at 30 mg/kg (Pasteurella multocida): 90%
minimal inhibitory concentration (MIC) [1]: 1
minimal inhibitory concentration (MIC) [2]: 0.25
minimal inhibitory concentration (MIC) [3]: 0.25
minimal inhibitory concentration (MIC) [4]: 0.06
minimal inhibitory concentration (MIC) [5]: 0.25
minimal inhibitory concentration (MIC) [6]: 1
minimal inhibitory concentration (MIC) [7]: 0.25
minimal inhibitory concentration (MIC) [8]: 0.5
minimal inhibitory concentration (MIC) [9]: 0.25
minimal inhibitory concentration (MIC) [10]: 0.015
minimal inhibitory concentration (MIC) [11]: 0.25
minimal inhibitory concentration (MIC) [12]: 0.25
minimal inhibitory concentration (MIC) (Mycoplasma gallisepticum): < 0.05
minimal inhibitory concentration (MIC) [13]: 1.56
minimal inhibitory concentration (MIC) [14]: 3.12
minimal inhibitory concentration (MIC) (Staphylococcus aureus): 0.097
minimal inhibitory concentration (MIC) [15]: 3.12
minimal inhibitory concentration (MIC) [16]: 1.56
minimal inhibitory concentration (MIC) (Streptococcus sp. 80): < 0.05
minimal inhibitory concentration (MIC) [17]: 1.56
minimal inhibitory concentration (MIC) (Mycoplasma hyorhinis): 3.12
minimal inhibitory concentration (MIC) [18]: 3.12
minimal inhibitory concentration (MIC) [19]: 3.12
minimal inhibitory concentration (MIC) [20]: 1.56

CCC1OC(=O)CC(O)C(C)C(OC2OC(C)C(OC(C)=O)C(N(C)C)C2OC(C)=O)C(CC=O)CC(C)C(=O)C=CC(C)=CC1COS(=O)(=O)c1ccc(NC(C)=O)cc1 (centres unmarked) [Compound 47, 23-O-(p-Acetamidobenzenesulfonyl)-2',4'-di-O-acetyl-OMT]
mortality at 30 mg/kg (Pasteurella multocida): 90%
minimal inhibitory concentration (MIC) [2]: 1
minimal inhibitory concentration (MIC) [3]: 1
minimal inhibitory concentration (MIC) [4]: 0.125
minimal inhibitory concentration (MIC) [5]: 2
minimal inhibitory concentration (MIC) [7]: 1
minimal inhibitory concentration (MIC) [8]: 2
minimal inhibitory concentration (MIC) [9]: 2
minimal inhibitory concentration (MIC) [10]: 0.125
minimal inhibitory concentration (MIC) [11]: 1
minimal inhibitory concentration (MIC) [12]: 1
minimal inhibitory concentration (MIC) (Mycoplasma gallisepticum): 0.195
minimal inhibitory concentration (MIC) [13]: 3.12
minimal inhibitory concentration (MIC) [14]: 12.5
minimal inhibitory concentration (MIC) (Staphylococcus aureus): 0.78
minimal inhibitory concentration (MIC) [15]: 12.5
minimal inhibitory concentration (MIC) [16]: 3.12
minimal inhibitory concentration (MIC) (Streptococcus sp. 80): < 0.05
minimal inhibitory concentration (MIC) [17]: 6.25
minimal inhibitory concentration (MIC) (Mycoplasma hyorhinis): 12.5
minimal inhibitory concentration (MIC) [18]: 12.5
minimal inhibitory concentration (MIC) (Mycoplasma synoviae): 1.56
minimal inhibitory concentration (MIC) [19]: 12.5
minimal inhibitory concentration (MIC) [20]: 12.5

CCC1OC(=O)CC(O)C(C)C(OC2OC(C)C(OC(C)=O)C(N(C)C)C2OC(C)=O)C(CC=O)CC(C)C(=O)C=CC(C)=CC1COC(=O)[C@H](O)c1ccccc1 (stereo partly drawn) [Compound 41, 2',4'-Di-O-acetyl-23-O-(D-mandeloyl)-OMT]
mortality at 30 mg/kg (Pasteurella multocida): 100%
minimal inhibitory concentration (MIC) [2]: 0.125
minimal inhibitory concentration (MIC) [3]: 0.25
minimal inhibitory concentration (MIC) [4]: 0.06
minimal inhibitory concentration (MIC) [5]: 0.5
minimal inhibitory concentration (MIC) [7]: 0.25
minimal inhibitory concentration (MIC) [8]: 0.25
minimal inhibitory concentration (MIC) [9]: 0.25
minimal inhibitory concentration (MIC) [10]: 0.03
minimal inhibitory concentration (MIC) [11]: 0.125
minimal inhibitory concentration (MIC) [12]: 0.25
minimal inhibitory concentration (MIC) (Mycoplasma gallisepticum): 0.195
minimal inhibitory concentration (MIC) [13]: 3.12
minimal inhibitory concentration (MIC) [14]: 6.25
minimal inhibitory concentration (MIC) (Staphylococcus aureus): 0.78
minimal inhibitory concentration (MIC) [15]: 6.25
minimal inhibitory concentration (MIC) [16]: 3.12
minimal inhibitory concentration (MIC) (Streptococcus sp. 80): 0.195
minimal inhibitory concentration (MIC) [17]: 3.12
minimal inhibitory concentration (MIC) (Mycoplasma hyorhinis): 12.5
minimal inhibitory concentration (MIC) [18]: 6.25
minimal inhibitory concentration (MIC) (Mycoplasma synoviae): 0.39
minimal inhibitory concentration (MIC) [19]: 3.12
minimal inhibitory concentration (MIC) [20]: 3.12

CCC1OC(=O)CC(O)C(C)C(OC2OC(C)C(O)C(N(C)C)C2O)C(CC=O)CC(C)C(=O)C=CC(C)=CC1COC(=O)Cc1ccc(Cl)cc1 (centres unmarked) [Compound 32, 23-O-(p-Chlorophenylacetyl)-OMT]
mortality at 30 mg/kg (Pasteurella multocida): 20%
minimal inhibitory concentration (MIC) [2]: 0.125
minimal inhibitory concentration (MIC) [3]: 0.125
minimal inhibitory concentration (MIC) [4]: 0.06
minimal inhibitory concentration (MIC) [5]: 0.25
minimal inhibitory concentration (MIC) [7]: 0.125
minimal inhibitory concentration (MIC) [8]: 0.25
minimal inhibitory concentration (MIC) [9]: 0.25
minimal inhibitory concentration (MIC) [10]: 0.03
minimal inhibitory concentration (MIC) [11]: 0.125
minimal inhibitory concentration (MIC) [12]: 0.125
minimal inhibitory concentration (MIC) (Mycoplasma gallisepticum): < 0.05
minimal inhibitory concentration (MIC) [13]: 0.39
minimal inhibitory concentration (MIC) [14]: 1.56
minimal inhibitory concentration (MIC) (Staphylococcus aureus): 0.097
minimal inhibitory concentration (MIC) [15]: 3.12
minimal inhibitory concentration (MIC) [16]: 0.78
minimal inhibitory concentration (MIC) (Streptococcus sp. 80): 0.097
minimal inhibitory concentration (MIC) [17]: 1.56
minimal inhibitory concentration (MIC) (Mycoplasma hyorhinis): 3.12
minimal inhibitory concentration (MIC) [18]: 3.12
minimal inhibitory concentration (MIC) (Mycoplasma synoviae): < 0.05
minimal inhibitory concentration (MIC) [19]: 0.78
minimal inhibitory concentration (MIC) [20]: 1.56
